The source made the active and inactive calls. The rule behind the calls is not given here.
Tests used:
[1] = test system: Rattus norvegicus; assay: Antiinflammatory activity in po dosed formalin-induced rat foot paw edema model assessed as paw thickness after 3 hrs; format: functional
[2] = molecular target: T1, Prostaglandin G/H synthase 1 (Ovis aries, UniProt P05979); assay: Inhibition of ovine COX1 by enzyme immuno assay
T1 sequence (P05979 whole entry): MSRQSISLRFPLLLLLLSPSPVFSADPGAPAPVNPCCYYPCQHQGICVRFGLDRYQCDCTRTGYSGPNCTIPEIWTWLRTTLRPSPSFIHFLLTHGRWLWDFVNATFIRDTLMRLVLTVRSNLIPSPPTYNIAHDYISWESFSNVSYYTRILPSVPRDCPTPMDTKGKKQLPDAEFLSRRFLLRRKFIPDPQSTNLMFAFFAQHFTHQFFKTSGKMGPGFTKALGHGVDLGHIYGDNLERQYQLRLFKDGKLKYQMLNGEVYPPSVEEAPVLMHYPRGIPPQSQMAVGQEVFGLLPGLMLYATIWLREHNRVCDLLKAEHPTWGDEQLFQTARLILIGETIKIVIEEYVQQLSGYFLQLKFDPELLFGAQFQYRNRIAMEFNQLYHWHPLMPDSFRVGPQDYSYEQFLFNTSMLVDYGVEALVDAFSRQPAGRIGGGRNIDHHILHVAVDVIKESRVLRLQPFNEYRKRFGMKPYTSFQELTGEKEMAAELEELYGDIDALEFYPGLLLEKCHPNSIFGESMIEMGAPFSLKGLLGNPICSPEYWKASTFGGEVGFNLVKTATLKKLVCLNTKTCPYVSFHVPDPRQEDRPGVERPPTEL

[3] = test system: Rattus norvegicus; assay: Ulcerogenic activity in po dosed formalin-induced rat foot paw edema model assessed as ulcer index at antiinflammatory ED50; format: toxicity, organism-based; settings: in vivo
[4] = test system: Rattus norvegicus; assay: Ulcerogenic activity in formalin-induced rat foot paw edema model assessed as ulcer index at 120 umol/kg, po; format: toxicity, organism-based; settings: in vivo

Row | SMILES | ED50 [1] | IC50 [2] [µM] | UI [3] | UI [4]
1 | NS(=O)(=O)c1ccc(N2N=C(c3ccco3)CC2c2ccc(C(F)(F)F)cc2)cc1 (configuration not stated) | inactive | 2.14 | 1.2 | 
2 | NS(=O)(=O)c1ccc(N2N=C(c3cccs3)CC2c2ccc(Cl)cc2)cc1 (configuration not stated) | 197 µmol/kg | 8.71 | 2.82 | 
3 | COc1ccc(C2CC(c3cccs3)=NN2c2ccc(S(N)(=O)=O)cc2)cc1 (configuration not stated) | 204 µmol/kg | 11.7 | 2.97 | 
4 | COc1cc(C2CC(c3ccco3)=NN2c2ccc(S(N)(=O)=O)cc2)cc(OC)c1OC (configuration not stated) | 179 µmol/kg | 7.36 | 2.7 | 
5 | NS(=O)(=O)c1ccc(N2N=C(c3ccco3)CC2c2cccs2)cc1 (configuration not stated) | 469 µmol/kg | 12.3 | 3.03 | 
6 | NS(=O)(=O)c1ccc(N2N=C(c3cccs3)CC2c2ccc(C(F)(F)F)cc2)cc1 (configuration not stated) | 99 µmol/kg | 5.74 | 3.8 | 
7 | NS(=O)(=O)c1ccc(N2N=C(c3ccco3)CC2c2ccco2)cc1 (configuration not stated) | 383 µmol/kg | 9.65 | 1.2 | 
8 | CC(C)Cc1ccc(C(C)C(=O)O)cc1 (configuration not stated) [IBUPROFEN] | 499 µmol/kg |  |  | 20.25
9 | NS(=O)(=O)c1ccc(N2N=C(c3cccs3)CC2c2ccco2)cc1 (configuration not stated) | 209 µmol/kg | 14.6 | 4.15 | 
10 | COc1cc(C2CC(c3cccs3)=NN2c2ccc(S(N)(=O)=O)cc2)cc(OC)c1OC (configuration not stated) | 382 µmol/kg | 13.4 |  | 
11 | NS(=O)(=O)c1ccc(N2N=C(c3cccs3)CC2c2cccs2)cc1 (configuration not stated) | 144 µmol/kg | 16.4 | 2.7 | 
12 | COc1ccc(C2CC(c3ccco3)=NN2c2ccc(S(N)(=O)=O)cc2)cc1 (configuration not stated) | 232 µmol/kg | 6.74 | 3.13 | 
13 | NS(=O)(=O)c1ccc(N2N=C(c3ccco3)CC2c2ccc(Cl)cc2)cc1 (configuration not stated) | 404 µmol/kg | 4.66 | 4.12 | 
14 | NS(=O)(=O)c1ccc(N2N=C(c3ccco3)CC2c2ccccc2)cc1 (configuration not stated) | 238 µmol/kg | 10.2 | 4.6 | 
15 | Cc1ccc(-c2cc(C(F)(F)F)nn2-c2ccc(S(N)(=O)=O)cc2)cc1 [CELECOXIB] | 47 µmol/kg |  | 2.9 | 

From ChEMBL document CHEMBL3745634, “Synthesis, cyclooxygenase inhibition, anti-inflammatory evaluation and ulcerogenic liability of new 1,3,5-triarylpyrazoline and 1,5-diarylpyrazole derivatives as selective COX-2 inhibitors” (Bioorg Med Chem Lett, 2016)
